{"source": "PubChem BioAssay AID1788", "about": "(Vanderbilt High Throughput Screening Facility, 2009)", "test_in_all_cases": "PubChem AID 1788", "key": {"[1]": {"molecular_target": "5-hydroxytryptamine receptor 1A (Homo sapiens) (UniProt P08908)", "sequence (P08908 whole entry, looked up)": "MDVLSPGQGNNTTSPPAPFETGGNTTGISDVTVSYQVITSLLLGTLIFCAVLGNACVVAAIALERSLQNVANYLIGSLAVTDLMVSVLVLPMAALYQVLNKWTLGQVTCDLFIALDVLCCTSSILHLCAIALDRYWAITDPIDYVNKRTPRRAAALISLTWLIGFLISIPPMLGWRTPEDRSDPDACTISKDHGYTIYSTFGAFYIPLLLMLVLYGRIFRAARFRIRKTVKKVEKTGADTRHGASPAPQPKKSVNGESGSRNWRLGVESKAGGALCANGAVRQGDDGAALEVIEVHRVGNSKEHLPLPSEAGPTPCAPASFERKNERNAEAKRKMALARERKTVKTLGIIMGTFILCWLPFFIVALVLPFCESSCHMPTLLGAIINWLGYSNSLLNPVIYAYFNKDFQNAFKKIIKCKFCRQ", "conditions": "MDS Pharma lead profiling panel, radioligand binding; Serotonin (5-Hydroxytryptamine) 5-HT1A (human); at 10 µM; active compounds read high"}, "Adenosine A1 (human)": {"test_system": "Adenosine A1 (human)", "conditions": "MDS Pharma lead profiling panel, radioligand binding, at 10 µM, active compounds read high"}, "Adenosine A2 (human)": {"test_system": "Adenosine A2 (human)", "conditions": "MDS Pharma lead profiling panel, radioligand binding, at 10 µM, active compounds read high"}, "Adrenergic a1A (rat)": {"test_system": "Adrenergic a1A (rat)", "conditions": "MDS Pharma lead profiling panel, radioligand binding, at 10 µM, active compounds read high"}, "Adrenergic a1D (human)": {"test_system": "Adrenergic a1D (human)", "conditions": "MDS Pharma lead profiling panel, radioligand binding, at 10 µM, active compounds read high"}, "Adrenergic b1 (human)": {"test_system": "Adrenergic b1 (human)", "conditions": "MDS Pharma lead profiling panel, radioligand binding, at 10 µM, active compounds read high"}, "[2]": {"molecular_target": "Alpha-2A adrenergic receptor (Homo sapiens) (UniProt P08913)", "sequence (P08913 whole entry, looked up)": "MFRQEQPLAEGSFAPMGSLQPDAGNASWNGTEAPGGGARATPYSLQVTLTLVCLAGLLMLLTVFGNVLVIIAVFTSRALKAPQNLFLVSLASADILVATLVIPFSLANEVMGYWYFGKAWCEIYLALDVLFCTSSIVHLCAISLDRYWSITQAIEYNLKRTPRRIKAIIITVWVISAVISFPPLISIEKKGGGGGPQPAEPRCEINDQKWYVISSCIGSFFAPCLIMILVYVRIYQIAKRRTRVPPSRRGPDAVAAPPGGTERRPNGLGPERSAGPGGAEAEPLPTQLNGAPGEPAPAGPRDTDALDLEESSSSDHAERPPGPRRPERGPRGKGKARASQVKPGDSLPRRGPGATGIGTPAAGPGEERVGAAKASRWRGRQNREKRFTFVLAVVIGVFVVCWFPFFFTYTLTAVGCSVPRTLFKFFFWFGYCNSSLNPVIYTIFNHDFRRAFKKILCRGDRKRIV", "conditions": "MDS Pharma lead profiling panel, radioligand binding; Adrenergic a2A (human); at 10 µM; active compounds read high"}, "[3]": {"molecular_target": "Beta-2 adrenergic receptor (Homo sapiens) (UniProt P07550)", "sequence (P07550 whole entry, looked up)": "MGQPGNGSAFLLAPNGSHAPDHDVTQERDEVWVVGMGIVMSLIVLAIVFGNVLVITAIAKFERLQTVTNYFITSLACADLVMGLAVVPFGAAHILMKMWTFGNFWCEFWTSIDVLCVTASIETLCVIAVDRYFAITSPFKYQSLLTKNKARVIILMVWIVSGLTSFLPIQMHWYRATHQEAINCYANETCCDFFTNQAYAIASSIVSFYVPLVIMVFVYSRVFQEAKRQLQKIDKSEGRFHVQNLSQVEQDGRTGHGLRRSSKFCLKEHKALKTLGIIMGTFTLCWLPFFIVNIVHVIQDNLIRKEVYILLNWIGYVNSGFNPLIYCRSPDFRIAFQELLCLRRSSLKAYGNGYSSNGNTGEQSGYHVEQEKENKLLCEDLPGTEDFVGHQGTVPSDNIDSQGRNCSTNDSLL", "conditions": "MDS Pharma lead profiling panel, radioligand binding; Adrenergic b2 (human); at 10 µM; active compounds read high"}, "Bradykinin B1 (human)": {"test_system": "Bradykinin B1 (human)", "conditions": "MDS Pharma lead profiling panel, radioligand binding, at 10 µM, active compounds read high"}, "Bradykinin B2 (human)": {"test_system": "Bradykinin B2 (human)", "conditions": "MDS Pharma lead profiling panel, radioligand binding, at 10 µM, active compounds read high"}, "[4]": {"test_system": "Calcium channel L-type (rat)", "conditions": "MDS Pharma lead profiling panel, radioligand binding, dihydropyridine site, at 10 µM, active compounds read high"}, "[5]": {"molecular_target": "D(1A) dopamine receptor (Homo sapiens) (UniProt P21728)", "sequence (P21728 whole entry, looked up)": "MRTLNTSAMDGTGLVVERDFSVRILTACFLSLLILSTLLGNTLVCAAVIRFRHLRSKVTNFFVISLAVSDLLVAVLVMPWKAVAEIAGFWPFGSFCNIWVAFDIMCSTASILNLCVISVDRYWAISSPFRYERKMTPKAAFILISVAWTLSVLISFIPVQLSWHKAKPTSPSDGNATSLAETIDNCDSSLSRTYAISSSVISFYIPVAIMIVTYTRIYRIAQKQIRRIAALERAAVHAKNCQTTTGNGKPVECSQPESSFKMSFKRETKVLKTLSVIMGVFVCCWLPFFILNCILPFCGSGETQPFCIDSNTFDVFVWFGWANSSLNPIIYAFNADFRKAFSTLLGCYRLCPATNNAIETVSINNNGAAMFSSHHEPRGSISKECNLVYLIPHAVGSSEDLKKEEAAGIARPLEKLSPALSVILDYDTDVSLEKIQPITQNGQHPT", "conditions": "MDS Pharma lead profiling panel, radioligand binding; Dopamine D1 (human); at 10 µM; active compounds read high"}, "[6]": {"molecular_target": "D(3) dopamine receptor (Homo sapiens) (UniProt P35462)", "sequence (P35462 whole entry, looked up)": "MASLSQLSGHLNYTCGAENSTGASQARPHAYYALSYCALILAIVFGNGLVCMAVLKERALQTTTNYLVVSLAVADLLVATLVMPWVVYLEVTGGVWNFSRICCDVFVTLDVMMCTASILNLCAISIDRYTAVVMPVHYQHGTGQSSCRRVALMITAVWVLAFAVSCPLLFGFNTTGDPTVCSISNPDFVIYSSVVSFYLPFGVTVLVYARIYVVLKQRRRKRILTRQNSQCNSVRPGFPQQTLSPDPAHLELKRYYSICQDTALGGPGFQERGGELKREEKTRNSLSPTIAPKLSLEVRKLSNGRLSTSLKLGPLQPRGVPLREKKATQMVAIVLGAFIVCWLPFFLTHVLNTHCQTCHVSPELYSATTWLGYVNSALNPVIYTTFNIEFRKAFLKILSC", "conditions": "MDS Pharma lead profiling panel, radioligand binding; Dopamine D3 (human); at 10 µM; active compounds read high"}, "Endothelin ETB (human)": {"test_system": "Endothelin ETB (human)", "conditions": "MDS Pharma lead profiling panel, radioligand binding, at 10 µM, active compounds read high"}, "[7]": {"test_system": "Epidermal Growth Factor (EGF) (human)", "conditions": "MDS Pharma lead profiling panel, radioligand binding, at 10 µM, active compounds read high"}, "[8]": {"test_system": "G protein-coupled receptor GPR103 (human)", "conditions": "MDS Pharma lead profiling panel, radioligand binding, at 10 µM, active compounds read high"}, "Glutamate Kainate (rat)": {"test_system": "Glutamate Kainate (rat)", "conditions": "MDS Pharma lead profiling panel, radioligand binding, at 10 µM, active compounds read high"}, "Glutamate NMDA (rat)": {"test_system": "Glutamate NMDA (rat)", "conditions": "MDS Pharma lead profiling panel, radioligand binding, at 10 µM, active compounds read high"}, "Histamine H1 (human)": {"test_system": "Histamine H1 (human)", "conditions": "MDS Pharma lead profiling panel, radioligand binding, at 10 µM, active compounds read high"}, "Histamine H2 (human)": {"test_system": "Histamine H2 (human)", "conditions": "MDS Pharma lead profiling panel, radioligand binding, at 10 µM, active compounds read high"}, "Histamine H3 (human)": {"test_system": "Histamine H3 (human)", "conditions": "MDS Pharma lead profiling panel, radioligand binding, at 10 µM, active compounds read high"}, "[9]": {"test_system": "Imidazoline I2 central (rat)", "conditions": "MDS Pharma lead profiling panel, radioligand binding, at 10 µM, active compounds read high"}, "Interleukin IL-1 (mouse)": {"test_system": "Interleukin IL-1 (mouse)", "conditions": "MDS Pharma lead profiling panel, radioligand binding, at 10 µM, active compounds read high"}, "[10]": {"test_system": "Leukotriene Cysteinyl CysLT1 (human)", "conditions": "MDS Pharma lead profiling panel, radioligand binding, at 10 µM, active compounds read high"}, "Melatonin MT1 (human)": {"test_system": "Melatonin MT1 (human)", "conditions": "MDS Pharma lead profiling panel, radioligand binding, at 10 µM, active compounds read high"}, "[11]": {"molecular_target": "Muscarinic acetylcholine receptor M3 (Homo sapiens) (UniProt P20309)", "sequence (P20309 whole entry, looked up)": "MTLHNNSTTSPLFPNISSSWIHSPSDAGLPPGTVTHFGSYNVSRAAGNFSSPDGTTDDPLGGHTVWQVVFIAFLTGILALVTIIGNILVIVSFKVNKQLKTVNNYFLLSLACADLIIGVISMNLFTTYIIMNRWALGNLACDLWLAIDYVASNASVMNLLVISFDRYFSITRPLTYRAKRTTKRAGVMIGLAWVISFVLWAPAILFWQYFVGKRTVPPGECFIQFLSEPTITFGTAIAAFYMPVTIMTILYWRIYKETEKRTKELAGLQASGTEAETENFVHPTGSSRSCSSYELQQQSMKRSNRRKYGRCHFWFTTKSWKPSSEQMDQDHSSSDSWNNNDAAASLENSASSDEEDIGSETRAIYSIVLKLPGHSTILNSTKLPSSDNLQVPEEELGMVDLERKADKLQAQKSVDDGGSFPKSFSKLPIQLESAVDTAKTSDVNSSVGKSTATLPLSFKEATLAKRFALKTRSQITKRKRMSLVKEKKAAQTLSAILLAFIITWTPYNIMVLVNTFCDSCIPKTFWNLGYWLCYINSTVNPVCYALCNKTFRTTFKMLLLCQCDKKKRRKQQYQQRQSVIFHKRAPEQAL", "conditions": "MDS Pharma lead profiling panel, radioligand binding, at 10 µM, active compounds read high"}, "[12]": {"molecular_target": "Neuropeptide Y receptor type 2 (Homo sapiens) (UniProt P49146)", "sequence (P49146 whole entry, looked up)": "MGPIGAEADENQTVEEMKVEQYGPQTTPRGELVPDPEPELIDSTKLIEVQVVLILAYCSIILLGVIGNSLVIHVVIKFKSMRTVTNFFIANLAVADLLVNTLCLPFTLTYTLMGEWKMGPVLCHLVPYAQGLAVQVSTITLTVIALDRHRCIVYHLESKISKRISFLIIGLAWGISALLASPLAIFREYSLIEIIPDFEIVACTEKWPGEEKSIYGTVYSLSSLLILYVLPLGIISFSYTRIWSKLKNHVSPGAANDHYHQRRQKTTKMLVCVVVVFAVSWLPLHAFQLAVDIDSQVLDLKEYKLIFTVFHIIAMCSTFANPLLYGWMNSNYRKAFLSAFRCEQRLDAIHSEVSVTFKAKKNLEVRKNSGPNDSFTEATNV", "conditions": "MDS Pharma lead profiling panel, radioligand binding; Neuropeptide Y Y2 (human); at 10 µM; active compounds read high"}, "[13]": {"test_system": "Serotonin (5-Hydroxytryptamine) 5-HT3 (human)", "conditions": "MDS Pharma lead profiling panel, radioligand binding, at 10 µM, active compounds read high"}, "Sigma s1 (human)": {"test_system": "Sigma s1 (human)", "conditions": "MDS Pharma lead profiling panel, radioligand binding, at 10 µM, active compounds read high"}, "Thyroid Hormone (rat)": {"test_system": "Thyroid Hormone (rat)", "conditions": "MDS Pharma lead profiling panel, radioligand binding, at 10 µM, active compounds read high"}, "[14]": {"test_system": "Transporter, Dopamine (DAT) (human)", "conditions": "MDS Pharma lead profiling panel, radioligand binding, at 10 µM, active compounds read high"}, "Transporter, GABA (rat)": {"test_system": "Transporter, GABA (rat)", "conditions": "MDS Pharma lead profiling panel, radioligand binding, at 10 µM, active compounds read high"}, "[15]": {"test_system": "Transporter, Norepinephrine (NET) (human)", "conditions": "MDS Pharma lead profiling panel, radioligand binding, at 10 µM, active compounds read high"}, "[16]": {"test_system": "Transporter, Serotonin (5-Hydroxytryptamine) (SERT) (human)", "conditions": "MDS Pharma lead profiling panel, radioligand binding, at 10 µM, active compounds read high"}}, "note": "Calls of active or inactive are those of the source. The rule behind the calls is not given here."}
{"smiles": "CCOC(=O)N1CCC(NCCNC(=O)c2ccccc2C)CC1", "values": [{"measurement": "inhibition", "setting": "[1]", "value": "25% (inactive)"}, {"measurement": "inhibition", "setting": "Adenosine A1 (human)", "value": "-4% (inactive)"}, {"measurement": "inhibition", "setting": "Adenosine A2 (human)", "value": "7% (inactive)"}, {"measurement": "inhibition", "setting": "Adrenergic a1A (rat)", "value": 53, "unit": "%"}, {"measurement": "inhibition", "setting": "Adrenergic a1D (human)", "value": "28% (inactive)"}, {"measurement": "inhibition", "setting": "Adrenergic b1 (human)", "value": "4% (inactive)"}, {"measurement": "inhibition", "setting": "[2]", "value": "22% (inactive)"}, {"measurement": "inhibition", "setting": "[3]", "value": "-1% (inactive)"}, {"measurement": "inhibition", "setting": "Bradykinin B1 (human)", "value": "8% (inactive)"}, {"measurement": "inhibition", "setting": "Bradykinin B2 (human)", "value": "9% (inactive)"}, {"measurement": "inhibition", "setting": "[4]", "value": "-8% (inactive)"}, {"measurement": "inhibition", "setting": "[5]", "value": "5% (inactive)"}, {"measurement": "inhibition", "setting": "[6]", "value": "48% (inactive)"}, {"measurement": "inhibition", "setting": "Endothelin ETB (human)", "value": "-4% (inactive)"}, {"measurement": "inhibition", "setting": "[7]", "value": "-3% (inactive)"}, {"measurement": "inhibition", "setting": "[8]", "value": "9% (inactive)"}, {"measurement": "inhibition", "setting": "Glutamate Kainate (rat)", "value": "9% (inactive)"}, {"measurement": "inhibition", "setting": "Glutamate NMDA (rat); Glycine site", "value": "-11% (inactive)"}, {"measurement": "inhibition", "setting": "Glutamate NMDA (rat); Phencyclidine site", "value": "7% (inactive)"}, {"measurement": "inhibition", "setting": "Glutamate NMDA (rat); agonism site", "value": "13% (inactive)"}, {"measurement": "inhibition", "setting": "Histamine H1 (human)", "value": "-4% (inactive)"}, {"measurement": "inhibition", "setting": "Histamine H2 (human)", "value": "27% (inactive)"}, {"measurement": "inhibition", "setting": "Histamine H3 (human)", "value": "11% (inactive)"}, {"measurement": "inhibition", "setting": "[9]", "value": "19% (inactive)"}, {"measurement": "inhibition", "setting": "Interleukin IL-1 (mouse)", "value": "-1% (inactive)"}, {"measurement": "inhibition", "setting": "[10]", "value": "5% (inactive)"}, {"measurement": "inhibition", "setting": "Melatonin MT1 (human)", "value": "25% (inactive)"}, {"measurement": "inhibition", "setting": "[11]", "value": "-14% (inactive)"}, {"measurement": "inhibition", "setting": "[12]", "value": "12% (inactive)"}, {"measurement": "inhibition", "setting": "[13]", "value": "2% (inactive)"}, {"measurement": "inhibition", "setting": "Sigma s1 (human)", "value": "69% (inactive)"}, {"measurement": "inhibition", "setting": "Thyroid Hormone (rat)", "value": "-8% (inactive)"}, {"measurement": "inhibition", "setting": "[14]", "value": "-1% (inactive)"}, {"measurement": "inhibition", "setting": "Transporter, GABA (rat)", "value": "3% (inactive)"}, {"measurement": "inhibition", "setting": "[15]", "value": "1% (inactive)"}, {"measurement": "inhibition", "setting": "[16]", "value": "-5% (inactive)"}]}
